These molecules were tested on Aβ42 (human neuroglioma H4 cells expressing human wild type APP751) (assay: In vitro cell screening assay with sandwich ELISA quantification of Aβ42 peptide). Conditions: H4 cells stably expressing human wild type APP751; Pro293 chemically defined medium; compounds 0.003-10 μM; incubated overnight (16-18 h); supernatant Aβ42 by sandwich ELISA; normalized to DMSO and DAPT; read-out: Aβ42 H4 Prot Fre IC50.
Assay type: cell-based
Summary of the method: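 H4 neuroglioma cells stably expressing human wild-type APP751 were treated in Pro293 medium with compounds (0.003-10 μM, 0.33% DMSO) for 16-18 h at 37° C. Secreted Aβ42 measured by sandwich ELISA (C-terminal capture, 4G8-HRP detection, TMB, 450 nm). IC50 by variable-slope sigmoidal regression on percent of DMSO control.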
In the case of `COc1cc(Nc2ncc3c(n2)N(C)[C@@H](C(C)(C)C)CO3)cnc1-n1cnc(C)c1` [Example 246], the IC50 is reported as 24 nM.
`COc1cc(Nc2ncc3c(n2)N(C)C(C)(C)CO3)ccc1-n1cnc(C)c1` [Example 254] gave an IC50 of 54 nM.
Molecule `Cc1cn(-c2ccc(Nc3ncc4c(n3)N(C)C(C)(C)CO4)cc2F)cn1` [Example 255] has an IC50 of 488 nM.
`COc1cc(Nc2ncc3c(n2)N(C)C2(CC2)CO3)ccc1-n1cnc(C)c1` [Example 257] gave an IC50 of 49 nM.
`Cc1cn(-c2ccc(Nc3ncc4c(n3)N(C)C3(CC3)CO4)cc2F)cn1` [Example 258] showed an IC50 of 324 nM.
`COc1cc(Nc2ncc3c(n2)N(C)C2(CCCC2)CO3)cnc1-n1cnc(C)c1` [Example 259] was tested, and the IC50 was 73 nM.
Molecule `COc1cc(Nc2ncc3c(n2)N(C)C2(CC2)CO3)cnc1-n1cnc(C)c1` [Example 260] has an IC50 of 213 nM.
`COc1cc(Nc2ncc3c(n2)N(C)C(C)(C)CO3)cnc1-n1cnc(C)c1` [Example 261] was tested, and the IC50 was 139 nM.
In the case of `Cc1cn(-c2ccc(Nc3ncc4c(n3)N(C)C(C)(C)CO4)nc2)cn1` [Example 262], the IC50 is reported as greater than 3000 nM.
`Cc1cn(-c2ccc(Nc3ncc4c(n3)N(C)C3(CCCC3)CO4)nc2)cn1` [Example 263] was tested, and the IC50 was greater than 3000 nM.
`COc1cc(Nc2ncc3c(n2)N(C)C2(CCCC2)CO3)ccc1-c1cnn(C)c1` [Example 264] was tested, and the IC50 was 260 nM.
Work on `Cc1cn(-c2ccc(Nc3ncc4c(n3)N(C)C3(CC3)CO4)nc2)cn1` [Example 265] yielded an IC50 greater than 3000 nM.
For `COc1cc(Nc2ncc3c(n2)N(C)C2(CCCC2)CO3)cnc1-c1cnn(C)c1` [Example 266], the IC50 was greater than 3000 nM.
`COc1cc(Nc2ncc3c(n2)N(C)C(C)(C)CO3)ccc1-c1cnn(C)c1` [Example 267] showed an IC50 of 822 nM.
Molecule `COc1cc(Nc2ncc3c(n2)N(C)C2(CC2)CO3)cnc1-c1cnn(C)c1` [Example 268] has an IC50 of 2780 nM.
`COc1cc(Nc2ncc3c(n2)N(C)C2(CC2)CO3)ccc1-c1cnn(C)c1` [Example 269] was tested, and the IC50 was 703 nM.
`COc1cc(Nc2ncc3c(n2)N(C)C(C)(C)CO3)cnc1-c1cnn(C)c1` [Example 270] showed an IC50 greater than 3000 nM.
`COc1cc(Nc2ncc3c(n2)N(C)C2(COC2)CO3)ccc1-n1cnc(C)c1` [Example 271] showed an IC50 of 364 nM.
`COc1cc(Nc2ncc3c(n2)N(C)C2(COC2)CO3)cnc1-n1cnc(C)c1` [Example 272] gave an IC50 of 537 nM.
Molecule `COc1cc(Nc2ncc3c(n2)N(C)C2(CCOCC2)CO3)ccc1-n1cnc(C)c1` [Example 273] has an IC50 of 111 nM.
For `COc1cc(Nc2ncc3c(n2)N(C)C2(CCOCC2)CO3)cnc1-n1cnc(C)c1` [Example 274], the IC50 was 295 nM.
With `COc1cc(Nc2ncc3c(n2)N(C)C2(CO3)CC(F)(F)C2)ccc1-n1cnc(C)c1` [Example 276] the IC50 was 56 nM.
`COc1cc(Nc2ncc3c(n2)N(C)C2(CO3)CC(F)(F)C2)ccc1-n1cnc(Cl)c1` [Example 277] gave an IC50 of 97 nM.
Work on `COc1cc(Nc2ncc3c(n2)N(C)C2(CO3)CC(F)(F)C2)cnc1-n1cnc(C)c1` [Example 278] yielded an IC50 of 92 nM.
With `Cc1cn(-c2ccc(Nc3ncc4c(n3)N(C)C3(CCCC3)CO4)cc2F)cn1` [Example 279] the IC50 was 254 nM.
With `COc1cc(Nc2ncc3c(n2)N2CCC[C@@]2(C)CO3)ccc1-n1cnc(C)c1` [Example 291, (S)-N-(3-methoxy-4-(4-methyl-1H-imidazol-1-yl)phenyl)-6a-methyl-6a, 7,8,9-tetrahydro-6H-pyrimido [5,4-b] pyrrolo [1,2-d] [1, 4] oxazin-2-amine] the IC50 was 131 nM.
For `Cc1cn(-c2ccc(Nc3ncc4c(n3)N3CCC[C@@]3(C)CO4)cc2F)cn1` [Example 292, (S)-N-(3-fluoro-4-(4-methyl-1H-imidazol-1-yl)phenyl)-6a-methyl-6a, 7,8,9-tetrahydro-6H-pyrimido [5,4-b] pyrrolo [1,2-d] [1, 4] oxazin-2-amine], the IC50 was 438 nM.
With `Cc1cn(-c2ccc(Nc3ncc4c(n3)N3CCC[C@]3(C)CO4)cc2F)cn1` [Example 293, (R)-N-(3-fluoro-4-(4-methyl-1H-imidazol-1-yl)phenyl)-6a-methyl-6a, 7,8,9-tetrahydro-6H-pyrimido [5,4-b] pyrrolo [1,2-d] [1, 4] oxazin-2-amine] the IC50 was 276 nM.
Molecule `COc1cc(Nc2ncc3c(n2)N2CCC[C@]2(C)CO3)ccc1-n1cnc(C)c1` [Example 294, (R)-N-(3-methoxy-4-(4-methyl-1H-imidazol-1-yl)phenyl)-6a-methyl-6a, 7,8,9-tetrahydro-6H-pyrimido [5,4-b] pyrrolo [1,2-d] [1, 4] oxazin-2-amine] has an IC50 of 80 nM.
With `COc1cc(Nc2ncc3c(n2)N2CCOC[C@H]2CO3)ccc1-n1cnc(C)c1` [Example 295] the IC50 was 496 nM.
In the case of `COc1cc(Nc2ncc3c(n2)N2CCOC[C@@H]2CO3)ccc1-n1cnc(C)c1` [Example 296], the IC50 is reported as 759 nM.
With `COc1cc(Nc2ncc3c(n2)N2CC(F)(F)C[C@H]2CO3)ccc1-n1cnc(C)c1` [Example 297, (S)-8,8-difluoro-N-(3-methoxy-4-(4-methyl-1H-imidazol-1-yl)phenyl)-6a, 7,8,9-tetrahydro-6H-pyrimido [5,4-b] pyrrolo [1,2-d] [1, 4] oxazin-2-amine] the IC50 was 99 nM.
`COc1cc(Nc2ncc3c(n2)N2CC(F)(F)C[C@H]2CO3)cnc1-n1cnc(C)c1` [Example 298, (S)-8,8-difluoro-N-(5-methoxy-6-(4-methyl-1H-imidazol-1-yl)pyridin-3-yl)-6a, 7,8,9-tetrahydro-6H-pyrimido [5,4-b] pyrrolo [1,2-d] [1, 4] oxazin-2-amine] showed an IC50 of 177 nM.
Molecule `Cc1cn(-c2ccc(Nc3ncc4c(n3)N3CCOC[C@H]3CO4)cc2F)cn1` [Example 299] has an IC50 greater than 3000 nM.
`Cc1cn(-c2ccc(Nc3ncc4c(n3)N3CCOC[C@@H]3CO4)cc2F)cn1` [Example 300] gave an IC50 of 781 nM.
`COc1cc(Nc2ncc3c(n2)N2CC(F)(F)C[C@@H]2CO3)ccc1-n1cnc(C)c1` [Example 303, (R)-8,8-difluoro-N-(3-methoxy-4-(4-methyl-1H-imidazol-1-yl)phenyl)-6a, 7,8,9-tetrahydro-6H-pyrimido [5,4-b] pyrrolo [1,2-d] [1, 4] oxazin-2-amine] was tested, and the IC50 was 131 nM.

Source: US9771378B2 (Denali Therapeutics, Inc., priority 2014, dated 2017)
